Assay results reported in patent US7109193B2, “Tricyclic diazepines tocolytic oxytocin receptor antagonists” (Wyeth, priority 2001, dated 2006).

Target: T1, human vasopressin V2 receptor subtype (Homo sapiens, UniProt P30518)
T1 construct: host or cells: CHO cells (pZeoSV vector)
Assay: Vasopressin binding in Chinese Hamster Ovary cell membranes expressing human vasopressin V2 subtype receptors
Conditions: 100 nM, CHO cell membranes, [3H]arginine vasopressin, values without parentheses
Summary of the method: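 Radioligand displacement on membranes from CHO cells stably expressing human V2 receptor, 25 to 50 μg protein/well, in 50 mM Tris-HCl pH 7.4 with MgCl2, BSA and protease inhibitors. [^3H]arginine vasopressin (8 nM working solution) incubated 60 min at room temperature; bound label measured by filtration and scintillation counting.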

Q: Which inhibition at 0.1 µM does the source give for `Cc1cc(C(=O)N2Cc3ccc(C(=O)N(CCCN(C)C)CCCN(C)C)n3Cc3ccccc32)ccc1-c1ccccc1C(F)(F)F` [Example 3, 10-[(2-Methyl-2′-trifluoromethyl-[1,1′-biphenyl]-4-yl)-carbonyl]-10,11-dihydro-5H-pyrrolo[2,1-c][1,4]benzodiazepine-3-carboxylic acid bis-(3-dimethylamino-propyl)-amide] here?
A: The inhibition at 0.1 µM was 22%.

Q: For `O=C(c1ccc(-c2cccc3ccccc23)cc1Cl)N1Cc2ccc(C(=O)N3CCC[C@H]3CN3CCCC3)n2Cc2ccccc21` [Example 261, {10-[2-Chloro-4-(1-naphthyl)benzoyl]-10,11-dihydro-5H-pyrrolo[2,1-c][1,4]benzodiazepin-3-yl}[(2S)-2-(1-pyrrolidinylmethyl)pyrrolidinyl]methanone], which “V2 % inhibition @ 100 nM” value is on record?
A: The value was 18%.

Q: With `COc1cc(C(=O)N2Cc3ccc(C(=O)N4CCC[C@H]4CN4CCCC4)n3Cc3ccccc32)ccc1-c1cccc2ccccc12` [Example 262, {10-[3-Methoxy-4-(1-naphthyl)benzoyl]-10,11-dihydro-5H-pyrrolo[2,1-c][1,4]benzodiazepin-3-yl}[(2S)-2-(1-pyrrolidinylmethyl)pyrrolidinyl]methanone] as the compound, how does the “V2 % inhibition @ 100 nM” value read?
A: The value was 4%.

Q: With `Cc1ccccc1-c1ccc(C(=O)N2Cc3ccc(C(=O)N4CCC[C@H]4CN4CCCC4)n3Cc3ccccc32)cc1` [Example 264, {10-[(2′-Methyl[1,1′-biphenyl]-4-yl)carbonyl]-10,11-dihydro-5H-pyrrolo[2,1-c][1,4]benzodiazepin-3-yl}[(2S)-2-(1-pyrrolidinylmethyl)pyrrolidinyl]methanone] as the compound, how does the “V2 % inhibition @ 100 nM” value read?
A: Its value is 12%.

Q: Which “V2 % inhibition @ 100 nM” value does the source give for `COc1ccccc1-c1ccc(C(=O)N2Cc3ccc(C(=O)N4CCC[C@H]4CN4CCCC4)n3Cc3ccccc32)cc1` [Example 265, {10-[(2′-Methoxy[1,1′-biphenyl]-4-yl)carbonyl]-10,11-dihydro-5H-pyrrolo[2,1-c][1,4]benzodiazepin-3-yl}[(2S)-2-(1-pyrrolidinylmethyl)pyrrolidinyl]methanone] here?
A: The value was 10%.

Q: For `COc1cc(C(=O)N2Cc3ccc(C(=O)N4CCC[C@H]4CN4CCCC4)n3Cc3ccccc32)ccc1-c1ccccc1C` [Example 266, {10-[(2-Methoxy-2′-methyl[1,1′-biphenyl]-4-yl)carbonyl]-10,11-dihydro-5H-pyrrolo[2,1-c][1,4]benzodiazepin-3-yl}[(2S)-2-(1-pyrrolidinylmethyl)pyrrolidinyl]methanone], which “V2 % inhibition @ 100 nM” value is on record?
A: The value was −17%.

Q: Which “V2 % inhibition @ 100 nM” value does the source give for `COc1cc(-c2ccccc2C)c(Cl)cc1C(=O)N1Cc2ccc(C(=O)N3CCC[C@H]3CN3CCCC3)n2Cc2ccccc21` [Example 267, {10-[(6-Chloro-3-methoxy-2′-methyl[1,1′-biphenyl]-4-yl)carbonyl]-10,11-dihydro-5H-pyrrolo[2,1-c][1,4]benzodiazepin-3-yl}[(2S)-2-(1-pyrrolidinylmethyl)pyrrolidinyl]methanone] here?
A: Its value is 24%.

Q: Which “V2 % inhibition @ 100 nM” value does the source give for `COc1cccc(-c2cc(OC)c(C(=O)N3Cc4ccc(C(=O)N5CCC[C@H]5CN5CCCC5)n4Cc4ccccc43)cc2Cl)c1` [Example 268, {10-[(6-Chloro-3,3′-dimethoxy[1,1′-biphenyl]-4-yl)carbonyl]-10,11-dihydro-5H-pyrrolo[2,1-c][1,4]benzodiazepin-3-yl}[(2S)-2-(1-pyrrolidinylmethyl)pyrrolidinyl]methanone] here?
A: Its value is 34%.

Q: With `COc1ccccc1-c1ccc(C(=O)N2Cc3ccc(C(=O)N4CCC[C@H]4CN4CCCC4)n3Cc3ccccc32)cc1OC` [Example 269, {10-[(2,2′-Dimethoxy[1,1′-biphenyl]-4-yl)carbonyl]-10,11-dihydro-5H-pyrrolo[2,1-c][1,4]benzodiazepin-3-yl}[(2S)-2-(1-pyrrolidinylmethyl)pyrrolidinyl]methanone] as the compound, how does the “V2 % inhibition @ 100 nM” value read?
A: The value was −19%.

Q: For `COc1cccc(-c2ccc(C(=O)N3Cc4ccc(C(=O)N5CCC[C@H]5CN5CCCC5)n4Cc4ccccc43)cc2OC)c1` [Example 270, {10-[(2,3′-Dimethoxy[1,1′-biphenyl]-4-yl)carbonyl]-10,11-dihydro-5H-pyrrolo[2,1-c][1,4]benzodiazepin-3-yl}[(2S)-2-(1-pyrrolidinylmethyl)pyrrolidinyl]methanone], which “V2 % inhibition @ 100 nM” value is on record?
A: Its value is 25%.

Q: For `Cc1ccccc1-c1ccc(C(=O)N2Cc3ccc(C(=O)N4CC[C@@H](N(C)C)C4)n3Cc3ccccc32)cc1C` [Example 274, [(3R)-3-(Dimethylamino)pyrrolidinyl]{10-[(2,2′-dimethyl[1,1′-biphenyl]-4-yl)carbonyl]-10,11-dihydro-5H-pyrrolo[2,1-c][1,4]benzodiazepin-3-yl}methanone], which “V2 % inhibition @ 100 nM” value is on record?
A: Its value is 32%.

Q: With `COc1cccc(-c2cc(OC)c(C(=O)N3Cc4ccc(C(=O)N5CC[C@@H](N(C)C)C5)n4Cc4ccccc43)cc2Cl)c1` [Example 275, {10-[(6-Chloro-3,3′-dimethoxy[1,1′-biphenyl]-4-yl)carbonyl]-10,11-dihydro-5H-pyrrolo[2,1-c][1,4]benzodiazepin-3-yl}[(3R)-3-(dimethylamino)pyrrolidinyl]methanone] as the compound, how does the “V2 % inhibition @ 100 nM” value read?
A: Its value is 21%.

Q: Which “V2 % inhibition @ 100 nM” value does the source give for `COc1cc(C(=O)N2Cc3ccc(C(=O)N4CC[C@@H](N(C)C)C4)n3Cc3ccccc32)ccc1-c1cccc2ccccc12` [Example 276, [(3R)-3-(Dimethylamino)pyrrolidinyl]{10-[3-methoxy-4-(1-naphthyl)benzoyl]-10,11-dihydro-5H-pyrrolo[2,1-c][1,4]benzodiazepin-3-yl}methanone] here?
A: Its value is −3%.

Q: For `CN(C)[C@@H]1CCN(C(=O)c2ccc3n2Cc2ccccc2N(C(=O)c2ccc(-c4cccc5ccccc45)cc2Cl)C3)C1` [Example 277, {10-[2-Chloro-4-(1-naphthyl)benzoyl]-10,11-dihydro-5H-pyrrolo[2,1-c][1,4]benzodiazepin-3-yl}[(3R)-3-(dimethylamino)pyrrolidinyl]methanone], which “V2 % inhibition @ 100 nM” value is on record?
A: The value was 19%.

Q: For `COc1ccccc1-c1ccc(C(=O)N2Cc3ccc(C(=O)N4CC[C@@H](N(C)C)C4)n3Cc3ccccc32)cc1` [Example 279, [(3R)-3-(Dimethylamino)pyrrolidinyl]{10-[(2′-methoxy[1,1′-biphenyl]-4-yl)carbonyl]-10,11-dihydro-5H-pyrrolo[2,1-c][1,4]benzodiazepin-3-yl}methanone], which “V2 % inhibition @ 100 nM” value is on record?
A: Its value is 17%.

Q: With `Cc1ccccc1-c1ccc(C(=O)N2Cc3ccc(C(=O)N4CC[C@@H](N(C)C)C4)n3Cc3ccccc32)cc1` [Example 280, [(3R)-3-(Dimethylamino)pyrrolidinyl]{10-[(2′-methyl[1,1′-biphenyl]-4-yl)carbonyl]-10,11-dihydro-5H-pyrrolo[2,1-c][1,4]benzodiazepin-3-yl}methanone] as the compound, how does the “V2 % inhibition @ 100 nM” value read?
A: The value was 6%.

Q: For `COc1cc(C(=O)N2Cc3ccc(C(=O)N4CC[C@@H](N(C)C)C4)n3Cc3ccccc32)ccc1-c1ccccc1C` [Example 281, [(3R)-3-(Dimethylamino)pyrrolidinyl]{10-[(2-methoxy-2′-methyl[1,1′-biphenyl]-4-yl)carbonyl]-10,11-dihydro-5H-pyrrolo[2,1-c][1,4]benzodiazepin-3-yl}methanone], which “V2 % inhibition @ 100 nM” value is on record?
A: The value was −9%.

Q: Which “V2 % inhibition @ 100 nM” value does the source give for `COc1ccccc1-c1ccc(C(=O)N2Cc3ccc(C(=O)N4CC[C@@H](N(C)C)C4)n3Cc3ccccc32)cc1OC` [Example 282, {10-[(2,2′-Dimethoxy[1,1′-biphenyl]-4-yl)carbonyl]-10,11-dihydro-5H-pyrrolo[2,1-c][1,4]benzodiazepin-3-yl][(3R)-3-(dimethylamino)pyrrolidinyl]methanone] here?
A: The value was −17%.

Q: Which “V2 % inhibition @ 100 nM” value does the source give for `COc1cccc(-c2ccc(C(=O)N3Cc4ccc(C(=O)N5CC[C@@H](N(C)C)C5)n4Cc4ccccc43)cc2OC)c1` [Example 283, {10-[(2,3′-Dimethoxy[1,1′-biphenyl]-4-yl)carbonyl]-10,11-dihydro-5H-pyrrolo[2,1-c][1,4]benzodiazepin-3-yl}[(3R)-3-(dimethylamino)pyrrolidinyl]methanone] here?
A: Its value is 29%.

Q: For `COc1cc(C(=O)N2Cc3ccc(C(=O)N(C)CCCN(C)C)n3Cc3ccccc32)ccc1-n1c(C)ccc1C` [Example 310, N-[3-(Dimethylamino)propyl]-10-[4-(2,5-dimethyl-i H-pyrrol-1-yl)-3-methoxybenzoyl]-N-methyl-10,11-dihydro-5H-pyrrolo[2,1-c][1,4]benzodiazepine-3-carboxamide], which “V2 % inhibition @ 100 nM” value is on record?
A: The value was 12%.

Q: For `COc1cc(C(=O)N2Cc3ccc(C(=O)N4CCC[C@H]4CN4CCCC4)n3Cc3ccccc32)ccc1-n1c(C)ccc1C` [Example 321, {10-[4-(2,5-Dimethyl-1H-pyrrol-1-yl)-3-methoxybenzoyl]-10,11-dihydro-5H-pyrrolo[2,1-c][1,4]benzodiazepin-3-yl}[(2S)-2-(1-pyrrolidinylmethyl)pyrrolidinyl]methanone], which “V2 % inhibition @ 100 nM” value is on record?
A: Its value is 23%.

Q: With `COc1cc(C(=O)N2Cc3ccc(C(=O)N4CC[C@@H](N(C)C)C4)n3Cc3ccccc32)ccc1-n1c(C)ccc1C` [Example 322, [(3R)-3-(Dimethylamino)pyrrolidinyl]{10-[4-(2,5-dimethyl-1H-pyrrol-1-yl)-3-methoxybenzoyl]-10,11-dihydro-5H-pyrrolo[2,1-c][1,4]benzodiazepin-3-yl}methanone] as the compound, how does the “V2 % inhibition @ 100 nM” value read?
A: The value was 24%.

Q: With “{10-[(2,2′-Dimethoxy[1,1′-biphenyl]-4-yl)carbonyl]-10,11-dihydro-5H-pyrrolo[2,1-c][1,4]benzodiazepin-3-yl}(4-isopropyl-1-piperazinyl)methanone [Example 244]” as the compound, how does the “V2 % inhibition @ 100 nM” value read?
A: Its value is 9%.

Tested on: not given
Assay: not given
Conditions: not given

Q: With `Cc1cc(C(=O)N2Cc3ccc(C(=O)N(CCCN(C)C)CCCN(C)C)n3Cc3ccccc32)ccc1-c1ccccc1C(F)(F)F` [Example 3, 10-[(2-Methyl-2′-trifluoromethyl-[1,1′-biphenyl]-4-yl)-carbonyl]-10,11-dihydro-5H-pyrrolo[2,1-c][1,4]benzodiazepine-3-carboxylic acid bis-(3-dimethylamino-propyl)-amide] as the compound, how does the melting point read?
A: Its melting point is 55 to 64 °C.
